Target: T1, rAaBGL1 (Aspergillus aculeatus β-glucosidase 1) (Aspergillus aculeatus, UniProt P48825)
T1 construct: full AaBGL1 gene amplified from A. aculeatus genomic DNA, own signal peptide, no tag mentioned; expressed in Aspergillus oryzae niaD300, released from cell surface
T1 sequence (P48825 20-860): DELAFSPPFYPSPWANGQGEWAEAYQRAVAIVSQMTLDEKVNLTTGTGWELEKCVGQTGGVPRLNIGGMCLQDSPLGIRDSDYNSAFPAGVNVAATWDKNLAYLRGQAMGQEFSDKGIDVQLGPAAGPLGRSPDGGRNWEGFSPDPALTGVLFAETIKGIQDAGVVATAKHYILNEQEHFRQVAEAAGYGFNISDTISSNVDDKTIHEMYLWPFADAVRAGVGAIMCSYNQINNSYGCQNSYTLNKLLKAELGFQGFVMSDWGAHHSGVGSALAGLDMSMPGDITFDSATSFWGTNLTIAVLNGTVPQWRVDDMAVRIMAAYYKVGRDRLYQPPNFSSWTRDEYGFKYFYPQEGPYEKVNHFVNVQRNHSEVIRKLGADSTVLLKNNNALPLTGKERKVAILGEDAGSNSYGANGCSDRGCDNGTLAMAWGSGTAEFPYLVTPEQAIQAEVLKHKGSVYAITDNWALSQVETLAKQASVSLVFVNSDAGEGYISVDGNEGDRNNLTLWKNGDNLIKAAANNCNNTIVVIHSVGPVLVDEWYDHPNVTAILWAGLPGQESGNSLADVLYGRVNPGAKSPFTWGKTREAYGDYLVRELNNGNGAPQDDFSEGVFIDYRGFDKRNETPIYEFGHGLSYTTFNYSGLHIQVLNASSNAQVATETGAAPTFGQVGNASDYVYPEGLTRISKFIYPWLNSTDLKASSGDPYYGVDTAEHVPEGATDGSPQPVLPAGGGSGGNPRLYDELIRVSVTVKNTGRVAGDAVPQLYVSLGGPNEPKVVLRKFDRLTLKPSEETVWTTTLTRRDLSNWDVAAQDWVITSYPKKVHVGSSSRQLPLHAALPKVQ
Experiment: pNP-Glc hydrolysis, absorbance […] nm, Dixon plot
Format: biochemical
Conditions: 0.1-0.4 mM pNP-Glc, 20 mM sodium acetate pH 5.0, 37°C; competitive

In the case of `OC[C@H]1OC(O)[C@H](O)[C@@H](O)[C@@H]1O` (stereo partly shown) [glucose], the Ki is reported as 9.99 ± 0.94 mM.

Source: publication PMC4305095, “Characterization of Aspergillus aculeatus β-glucosidase 1 accelerating cellulose hydrolysis with Trichoderma cellulase system” (AMB Express, 2015)
